# Assay results from ChEMBL document CHEMBL1201862, “PubChem BioAssay data set” (2004).
#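 Dose response: 5 concentrations. Exposure: 48 h. Format: 96-well plates. Endpoint: linear interpolation; highest concentration if not reached. GI50 = concentration required for 50% inhibition of growth.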 Active and inactive are the calls of the source. No stated cut-off is given here; in the data, active = GI50 up to about 1.1 µM and inactive = higher.
# Experiments:
# Test in all cases: NCI-60 cell line screen, 48 h
# 786-0 = system: 786-0
# OVCAR-3 = system: OVCAR-3
# CCRF-CEM = system: CCRF-CEM
# SNB-75 = system: SNB-75
# RPMI-8226 = system: RPMI-8226
# DMS-114 = system: DMS-114
# SNB-78 = system: SNB-78
# TK-10 = system: TK-10
# HT-29 = system: HT-29
# Malme-3M = system: Malme-3M
# UACC-62 = system: UACC-62
# A498 = system: A498
# KM12 = system: KM12
# HOP-92 = system: HOP-92
# DLD-1 = system: DLD-1
# M19-MEL = system: M19-MEL
# SK-MEL-5 = system: SK-MEL-5
# SK-OV-3 = system: SK-OV-3
# NCI-H522 = system: NCI-H522
# SW-620 = system: SW-620
# HCT-116 = system: HCT-116
# HL-60 = system: HL-60
# HOP-62 = system: HOP-62
# HOP-18 = system: HOP-18
# A549 = system: A549
# EKVX = system: EKVX
# UO-31 = system: UO-31
# M14 = system: M14
# HCT-15 = system: HCT-15
# MOLT-4 = system: MOLT-4
# SF-268 = system: SF-268
# CAKI-1 = system: CAKI-1
# ACHN = system: ACHN
# RXF 393 = system: RXF 393
# NCI-H226 = system: NCI-H226
# IGROV-1 = system: IGROV-1
# COLO 205 = system: COLO 205
# SF-295 = system: SF-295
# SF-539 = system: SF-539
# OVCAR-8 = system: OVCAR-8
# OVCAR-4 = system: OVCAR-4
# SK-MEL-28 = system: SK-MEL-28
# OVCAR-5 = system: OVCAR-5
# DMS-273 = system: DMS-273
# SN12C = system: SN12C
# LXFL 529 = system: LXFL 529
# UACC-257 = system: UACC-257
# XF498 = system: XF498
# NCI-H460 = system: NCI-H460
# SK-MEL-2 = system: SK-MEL-2
# K562 = system: K562
# LOX IMVI = system: LOX IMVI
# SNB-19 = system: SNB-19
# NCI-H23 = system: NCI-H23
# KM-20L2 = system: KM-20L2
# HCC 2998 = system: HCC 2998
# U-251 = system: U-251
# SR = system: SR
# RXF 631 = system: RXF 631
smiles,measurement,setting,value
O=C(N/C(=C\c1ccc2c(c1)OCO2)c1nc2ccccc2[nH]1)c1ccccc1,GI50,786-0,59.2 µM (inactive)
same,GI50,OVCAR-3,24.7 µM (inactive)
same,GI50,CCRF-CEM,26.9 µM (inactive)
same,GI50,SNB-75,20.9 µM (inactive)
same,GI50,RPMI-8226,32.2 µM (inactive)
same,GI50,DMS-114,2.39 µM (inactive)
same,GI50,SNB-78,39.4 µM (inactive)
same,GI50,TK-10,29.2 µM (inactive)
same,GI50,HT-29,4.98 µM (inactive)
same,GI50,Malme-3M,34.2 µM (inactive)
same,GI50,UACC-62,20.9 µM (inactive)
same,GI50,A498,33.1 µM (inactive)
same,GI50,KM12,32.7 µM (inactive)
same,GI50,HOP-92,18.8 µM (inactive)
same,GI50,DLD-1,30.8 µM (inactive)
same,GI50,M19-MEL,3.03 µM (inactive)
same,GI50,SK-MEL-5,16 µM (inactive)
same,GI50,SK-OV-3,35.6 µM (inactive)
same,GI50,NCI-H522,14.7 µM (inactive)
same,GI50,SW-620,33.6 µM (inactive)
same,GI50,HCT-116,31.3 µM (inactive)
same,GI50,HL-60,14.8 µM (inactive)
same,GI50,HOP-62,24.5 µM (inactive)
same,GI50,HOP-18,43.6 µM (inactive)
same,GI50,A549,35.2 µM (inactive)
same,GI50,EKVX,41.2 µM (inactive)
same,GI50,UO-31,24.6 µM (inactive)
same,GI50,M14,25.1 µM (inactive)
same,GI50,HCT-15,35.6 µM
same,GI50,MOLT-4,20.2 µM (inactive)
same,GI50,SF-268,38.2 µM (inactive)
same,GI50,CAKI-1,33.6 µM (inactive)
same,GI50,ACHN,33.3 µM (inactive)
same,GI50,RXF 393,24.7 µM (inactive)
same,GI50,NCI-H226,21 µM (inactive)
same,GI50,IGROV-1,27.7 µM (inactive)
same,GI50,COLO 205,25.1 µM (inactive)
same,GI50,SF-295,43.7 µM (inactive)
same,GI50,SF-539,24.9 µM (inactive)
same,GI50,OVCAR-8,37 µM (inactive)
same,GI50,OVCAR-4,19.7 µM (inactive)
same,GI50,SK-MEL-28,17.6 µM (inactive)
same,GI50,OVCAR-5,37.6 µM (inactive)
same,GI50,DMS-273,28.8 µM (inactive)
same,GI50,SN12C,30.2 µM (inactive)
same,GI50,LXFL 529,20.4 µM (inactive)
same,GI50,UACC-257,19.6 µM (inactive)
same,GI50,XF498,15.5 µM (inactive)
same,GI50,NCI-H460,34.8 µM (inactive)
same,GI50,SK-MEL-2,26.4 µM (inactive)
same,GI50,K562,24.3 µM (inactive)
same,GI50,LOX IMVI,38.5 µM (inactive)
same,GI50,SNB-19,36 µM (inactive)
same,GI50,NCI-H23,18.6 µM (inactive)
same,GI50,KM-20L2,33.7 µM (inactive)
same,GI50,HCC 2998,27.7 µM (inactive)
same,GI50,U-251,32 µM (inactive)
same,GI50,SR,21.9 µM (inactive)
Clc1c(Cl)c2c(Cl)c(Cl)c1C[PH](c1ccccc1)(c1ccccc1)CC[PH](c1ccccc1)(c1ccccc1)Cc1c(Cl)c(Cl)c(c(Cl)c1Cl)C[PH](c1ccccc1)(c1ccccc1)CC[PH](c1ccccc1)(c1ccccc1)C2,GI50,786-0,4.67 µM (inactive)
same,GI50,OVCAR-3,2.66 µM (inactive)
same,GI50,CCRF-CEM,2.46 µM (inactive)
same,GI50,SNB-75,3.46 µM (inactive)
same,GI50,RPMI-8226,1.28 µM (inactive)
same,GI50,DMS-114,1.68 µM (inactive)
same,GI50,SNB-78,3.82 µM (inactive)
same,GI50,TK-10,3.18 µM (inactive)
same,GI50,HT-29,2.21 µM (inactive)
same,GI50,Malme-3M,2.38 µM (inactive)
same,GI50,UACC-62,1.85 µM (inactive)
same,GI50,A498,11.4 µM (inactive)
same,GI50,KM12,2.34 µM (inactive)
same,GI50,HOP-92,2.26 µM (inactive)
same,GI50,DLD-1,2.37 µM (inactive)
same,GI50,M19-MEL,2.81 µM (inactive)
same,GI50,SK-MEL-5,1.67 µM (inactive)
same,GI50,SK-OV-3,6.84 µM (inactive)
same,GI50,NCI-H522,2.56 µM (inactive)
same,GI50,SW-620,3.31 µM (inactive)
same,GI50,HCT-116,1.79 µM (inactive)
same,GI50,HL-60,1.36 µM (inactive)
same,GI50,HOP-62,4.95 µM (inactive)
same,GI50,HOP-18,8.17 µM (inactive)
same,GI50,A549,3.72 µM (inactive)
same,GI50,EKVX,9.08 µM (inactive)
same,GI50,UO-31,6.49 µM (inactive)
same,GI50,M14,4.51 µM (inactive)
same,GI50,HCT-15,8.39 µM
same,GI50,MOLT-4,3.27 µM (inactive)
same,GI50,SF-268,3.39 µM (inactive)
same,GI50,CAKI-1,7.06 µM (inactive)
same,GI50,ACHN,4.69 µM (inactive)
same,GI50,RXF 393,2.49 µM (inactive)
same,GI50,NCI-H226,5.07 µM (inactive)
same,GI50,IGROV-1,2.86 µM (inactive)
same,GI50,COLO 205,1.53 µM (inactive)
same,GI50,SF-295,3.35 µM (inactive)
same,GI50,RXF 631,6.68 µM (inactive)
same,GI50,SF-539,3.68 µM (inactive)
same,GI50,OVCAR-8,3.29 µM (inactive)
same,GI50,OVCAR-4,1.11 µM (active)
same,GI50,SK-MEL-28,2.02 µM (inactive)
same,GI50,OVCAR-5,3.15 µM (inactive)
same,GI50,DMS-273,2.42 µM (inactive)
same,GI50,SN12C,3.28 µM (inactive)
same,GI50,LXFL 529,2.15 µM (inactive)
same,GI50,UACC-257,2.38 µM (inactive)
same,GI50,NCI-H460,2.77 µM (inactive)
same,GI50,SK-MEL-2,2.16 µM (inactive)
same,GI50,K562,2.09 µM (inactive)
same,GI50,LOX IMVI,2.52 µM (inactive)
same,GI50,SNB-19,2.67 µM (inactive)
same,GI50,NCI-H23,2.01 µM (inactive)
same,GI50,KM-20L2,2.65 µM (inactive)
same,GI50,HCC 2998,3.63 µM (inactive)
same,GI50,U-251,3.22 µM (inactive)
Cc1cc(N(CCC#N)S(=O)(=O)c2ccccc2)ccc1/C=N\c1cccc(C(=O)O)c1,GI50,OVCAR-3,> 100 µM (inactive)
same,GI50,CCRF-CEM,> 100 µM (inactive)
same,GI50,SNB-75,35.6 µM (inactive)
same,GI50,RPMI-8226,> 100 µM (inactive)
same,GI50,DMS-114,61 µM (inactive)
same,GI50,SNB-78,> 100 µM (inactive)
same,GI50,TK-10,> 100 µM (inactive)
same,GI50,HT-29,> 100 µM (inactive)
same,GI50,Malme-3M,> 100 µM (inactive)
same,GI50,UACC-62,> 100 µM (inactive)
same,GI50,HOP-92,> 100 µM (inactive)
same,GI50,M19-MEL,> 100 µM (inactive)
same,GI50,SK-MEL-5,83.6 µM (inactive)
same,GI50,SK-OV-3,> 100 µM (inactive)
same,GI50,NCI-H522,> 100 µM (inactive)
same,GI50,SW-620,> 100 µM (inactive)
same,GI50,HCT-116,> 100 µM (inactive)
same,GI50,HL-60,> 100 µM (inactive)
same,GI50,HOP-62,> 100 µM (inactive)
same,GI50,HOP-18,> 100 µM (inactive)
same,GI50,A549,> 100 µM (inactive)
same,GI50,EKVX,> 100 µM (inactive)
same,GI50,UO-31,53.3 µM (inactive)
same,GI50,M14,> 100 µM (inactive)
same,GI50,HCT-15,> 100 µM
same,GI50,MOLT-4,> 100 µM (inactive)
same,GI50,SF-268,60.1 µM (inactive)
same,GI50,CAKI-1,> 100 µM (inactive)
same,GI50,ACHN,> 100 µM (inactive)
same,GI50,RXF 393,> 100 µM (inactive)
same,GI50,NCI-H226,> 100 µM (inactive)
same,GI50,IGROV-1,> 100 µM (inactive)
same,GI50,COLO 205,> 100 µM (inactive)
same,GI50,SF-295,> 100 µM (inactive)
same,GI50,RXF 631,> 100 µM (inactive)
same,GI50,SF-539,> 100 µM (inactive)
same,GI50,OVCAR-8,> 100 µM (inactive)
same,GI50,OVCAR-4,> 100 µM (inactive)
same,GI50,SK-MEL-28,> 100 µM (inactive)
same,GI50,OVCAR-5,> 100 µM (inactive)
same,GI50,SN12C,> 100 µM (inactive)
same,GI50,LXFL 529,> 100 µM (inactive)
same,GI50,UACC-257,> 100 µM (inactive)
same,GI50,NCI-H460,> 100 µM (inactive)
same,GI50,SK-MEL-2,> 100 µM (inactive)
same,GI50,K562,71 µM (inactive)
same,GI50,SNB-19,> 100 µM (inactive)
same,GI50,NCI-H23,> 100 µM (inactive)
same,GI50,KM-20L2,> 100 µM (inactive)
same,GI50,HCC 2998,> 100 µM (inactive)
same,GI50,U-251,> 100 µM (inactive)
